Measurements published in PubChem BioAssay (NCI).
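Five concentrations, 48 hours, 96-well plates. At the GI50, growth is halved. TGI denotes the concentration required for complete inhibition of growth.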

Experiments:
Experiment in all cases: NCI-60 cell line screen, 48 h
[1] = test system: BT-549 breast
[2] = test system: HS 578T breast
[3] = test system: DLD-1 colon
[4] = test system: DMS 114 small cell lung
[5] = test system: DMS 273 small cell lung
[6] = test system: KM20L2 colon
[7] = test system: LXFL 529 NSCLC
[8] = test system: M19-MEL melanoma
[9] = test system: SNB-78 CNS
[10] = test system: RXF-631 renal
[11] = test system: XF 498 CNS
[12] = test system: HOP-18 NSCLC

Which TGI [1] does the source give for `CCOC(=O)CCc1c(C)[nH]c2c(C)c3c([nH]c4ccc(Cl)cc43)c(C)c2c1=O` here?
Its TGI is 40.3 µM.

What about the TGI [2] of the same molecule?
Its TGI is 77.5 µM.

`CC(C)(C)OC(=O)N/N=C(/N)c1ccccc1` was tested. Which TGI [1] did it give?
Its TGI is greater than 100 µM.

Which results are given for `CC1(C)C(=O)C2(C#N)CCC1C2` (stereo unspecified)?
TGI [1]: > 100 µM; TGI [2]: > 100 µM

Which results are given for `NCCc1ccc2c(c1)C(=O)c1c(O)ccc(O)c1C2=O`?
TGI [1]: > 100 µM; TGI [2]: > 100 µM

For `COc1ccc(C(=O)c2ccc(-n3c4ccccc4c4ccc5c(c43)C(=O)C=CC5=O)cc2)cc1`, which TGI [1] is on record?
Its TGI is 8.06 µM.

And the TGI [2]?
Its TGI is 4.51 µM.

Which TGI [3] does the source give for `CCCCCn1cnc2c1S(=O)(=O)N(C)C(NC(=O)c1ccccc1)=N2` here?
The TGI was greater than 100 µM.

And the TGI [4]?
The TGI was greater than 100 µM.

And the TGI [5]?
Its TGI is greater than 100 µM.

What about the TGI [6] of the same molecule?
Its TGI is greater than 100 µM.

And the TGI [7]?
Its TGI is greater than 100 µM.

And the TGI [8]?
The TGI was greater than 100 µM.

And the TGI [9]?
Its TGI is greater than 100 µM.

Which results are given for `O=C1C2Nc3ccccc3SC2C(=O)N1c1cccc([N+](=O)[O-])c1` (stereo unspecified)?
TGI [3]: > 100 µM; TGI [4]: > 100 µM; TGI [5]: > 100 µM; TGI [6]: > 100 µM; TGI [7]: > 100 µM; TGI [8]: > 100 µM; TGI [10]: > 100 µM; TGI [9]: > 100 µM; TGI [11]: > 100 µM

For `COc1cccc(-c2cc(=O)c3cccnc3[nH]2)c1`, which TGI [1] is on record?
Its TGI is greater than 100 µM.

And the TGI [2]?
Its TGI is greater than 100 µM.

How did the TGI [3] turn out when `Cn1c2c(cc(-c3ccccc3)c1=O)COc1ccccc1-2` was run?
The TGI was greater than 100 µM.

What about the TGI [4] of the same molecule?
Its TGI is 36.2 µM.

What about the TGI [5] of the same molecule?
Its TGI is 43.8 µM.

And the TGI [12]?
Its TGI is greater than 100 µM.

What about the TGI [6] of the same molecule?
The TGI was greater than 100 µM.

What about the TGI [7] of the same molecule?
The TGI was greater than 100 µM.

And the TGI [8]?
Its TGI is 64.2 µM.

And the TGI [9]?
The TGI was greater than 100 µM.

And the TGI [11]?
Its TGI is 26.1 µM.

Which results are given for `COc1cc(C2C(Cl)C(=O)N2NC(=O)Cc2ccccc2)ccc1O` (stereo unspecified)?
TGI [3]: > 100 µM; TGI [4]: > 100 µM; TGI [5]: > 100 µM; TGI [12]: > 100 µM; TGI [6]: > 100 µM; TGI [7]: > 100 µM; TGI [8]: > 100 µM; TGI [9]: > 100 µM; TGI [11]: > 100 µM

With `c1ccc2c3nnc(c2c1)SCCSCCCSCCS3` as the molecule, how does the TGI [2] read?
Its TGI is greater than 100 µM.

With `COc1ccc2c(c1)CC[C@@H]1[C@@H]2CC[C@]2(C)[C@@H](O)/C(=C/c3ccncc3)C[C@@H]12` as the molecule, how does the TGI [1] read?
The TGI was 31.6 µM.

What about the TGI [2] of the same molecule?
The TGI was 32 µM.

For `O=C1N[C@@H]2c3c(Br)sc(Br)c3C(=O)[C@@H]2N1`, which TGI [1] is on record?
Its TGI is 53 µM.

And the TGI [2]?
Its TGI is 37 µM.

What does the source list for `C[N+](C)(Cc1ccc(NC(=O)CCCC(=O)ON2C(=O)CCC2=O)cc1)c1ccccc1`?
TGI [3]: > 100 µM; TGI [5]: > 100 µM; TGI [12]: < 0.01 µM; TGI [7]: > 100 µM; TGI [8]: > 100 µM

`O=C(NNC(=O)c1ccccc1Cl)c1ccccc1O` was tested. Which TGI [1] did it give?
The TGI was greater than 100 µM.

And the TGI [2]?
The TGI was greater than 100 µM.

What does the source list for `CC1(C)S[C@@H]2[C@H](NC(=O)/C=C/c3ccccc3)C(=O)N2[C@H]1C(=O)O`?
TGI [1]: > 100 µM; TGI [2]: > 100 µM

For `COc1nc2c(c(=O)n1C)NC(C(O)C(O)CO)C=N2` (stereo unspecified), which TGI [1] is on record?
The TGI was greater than 10 µM.

What about the TGI [2] of the same molecule?
The TGI was greater than 10 µM.

Which TGI [2] does the source give for `CCOC(=O)CC(N1CC1)N1CC1` here?
The TGI was greater than 10 µM.

How did the TGI [3] turn out when `O=C(O)Cc1ccc2c(c1O)C(=O)c1c(ccc(CC(=O)O)c1O)C2=O` was run?
Its TGI is greater than 100 µM.

What about the TGI [4] of the same molecule?
The TGI was greater than 100 µM.

What about the TGI [5] of the same molecule?
Its TGI is greater than 100 µM.

What about the TGI [12] of the same molecule?
The TGI was greater than 100 µM.

What about the TGI [6] of the same molecule?
Its TGI is greater than 100 µM.

And the TGI [7]?
Its TGI is greater than 100 µM.

And the TGI [8]?
Its TGI is greater than 100 µM.

What about the TGI [9] of the same molecule?
The TGI was greater than 100 µM.

What about the TGI [11] of the same molecule?
Its TGI is greater than 100 µM.

With `CC(OCc1ccccc1)C(NC(=O)C1CSSCC(NC(=O)C(Cc2ccccc2)NC(=O)OCc2ccccc2)C(=O)NC(Cc2ccccc2)C(=O)NC(Cc2cn(C=O)c3ccccc23)C(=O)NC(CCCCNC(=O)OCc2ccccc2)C(=O)NC(C(C)OCc2ccccc2)C(=O)N1)C(N)=O` (stereo unspecified) as the molecule, how does the TGI [1] read?
The TGI was greater than 66.5 µM.

What about the TGI [2] of the same molecule?
The TGI was greater than 100 µM.

Which results are given for `Oc1[nH]c2ccccc2c1N=NC(=S)N1CCCC1`?
TGI [1]: 22.8 µM; TGI [2]: > 72.9 µM

How did the TGI [1] turn out when `O=c1c2ncn(CCCl)c2n(-c2ccccc2)c(=S)n1-c1ccccc1` was run?
Its TGI is greater than 100 µM.

What about the TGI [2] of the same molecule?
Its TGI is greater than 100 µM.

Which TGI [3] does the source give for `COC(=O)/C(=N\O)C(C(=O)C=C(C)C)C(=O)C(=O)Nc1ccccc1C` (stereo unspecified) here?
Its TGI is greater than 100 µM.

What about the TGI [4] of the same molecule?
The TGI was greater than 100 µM.

And the TGI [5]?
The TGI was greater than 100 µM.

And the TGI [12]?
Its TGI is greater than 100 µM.

And the TGI [6]?
Its TGI is greater than 100 µM.

What about the TGI [7] of the same molecule?
Its TGI is greater than 100 µM.

What about the TGI [8] of the same molecule?
The TGI was greater than 100 µM.

What about the TGI [9] of the same molecule?
The TGI was greater than 100 µM.

What about the TGI [11] of the same molecule?
Its TGI is greater than 100 µM.

How did the TGI [1] turn out when `CCOC(=O)C(Cc1cn(S(=O)(=O)c2ccc(C)cc2)cn1)P(=O)(OCC)OCC` (stereo unspecified) was run?
Its TGI is greater than 100 µM.

And the TGI [2]?
The TGI was greater than 100 µM.

With `O=C(Nc1cc(Cl)c(Cl)cc1Cl)C(=O)C(C(=O)c1ccc2ccccc2c1)C1OC(=O)c2ccccc21` (stereo unspecified) as the molecule, how does the TGI [3] read?
Its TGI is 32.9 µM.

And the TGI [4]?
Its TGI is 44.1 µM.

And the TGI [7]?
Its TGI is 22.6 µM.

And the TGI [8]?
The TGI was 53.6 µM.

What about the TGI [9] of the same molecule?
The TGI was 38.6 µM.

What does the source list for `CC(=O)NNc1nc(C)c(C(/C=C/c2ccc(NC(C)=O)cc2)=N/NS(=O)(=O)c2ccc(C)cc2)s1`?
TGI [1]: > 100 µM; TGI [2]: > 100 µM

With `N#CC(c1ccccc1)N(CCc1ccccc1)C(=O)Oc1ccccc1` (stereo unspecified) as the molecule, how does the TGI [1] read?
The TGI was greater than 100 µM.

And the TGI [2]?
The TGI was greater than 100 µM.

With `C/C(CN1C(=O)c2ccccc2C1=O)=N\NS(=O)(=O)c1ccc(F)cc1` as the molecule, how does the TGI [3] read?
Its TGI is greater than 100 µM.

What about the TGI [4] of the same molecule?
Its TGI is greater than 100 µM.

And the TGI [5]?
Its TGI is greater than 100 µM.

And the TGI [12]?
Its TGI is greater than 100 µM.

What about the TGI [6] of the same molecule?
The TGI was greater than 100 µM.

What about the TGI [7] of the same molecule?
The TGI was greater than 100 µM.

What about the TGI [9] of the same molecule?
The TGI was greater than 100 µM.

And the TGI [11]?
Its TGI is greater than 100 µM.

`O=C(NC/C(Cl)=C/Cl)Nc1cccc2c1CCCC2` was tested. Which TGI [2] did it give?
The TGI was greater than 100 µM.

`COC(=O)c1ccc(NCc2cc(O)ccc2O)cc1O` was tested. Which TGI [1] did it give?
The TGI was 14.2 µM.

What about the TGI [2] of the same molecule?
The TGI was greater than 68.1 µM.

Which TGI [1] does the source give for `O=C(CCc1cccc(O)c1)NCCc1cccc(OCc2ccccc2)c1` here?
Its TGI is 32.5 µM.

What about the TGI [2] of the same molecule?
Its TGI is 40.3 µM.

For `COC(=O)c1cc(C)n(NC(=O)OC(C)(C)C)c1C`, which TGI [3] is on record?
The TGI was greater than 100 µM.

What about the TGI [4] of the same molecule?
The TGI was greater than 100 µM.

What about the TGI [5] of the same molecule?
Its TGI is greater than 100 µM.

And the TGI [6]?
The TGI was greater than 100 µM.

What about the TGI [7] of the same molecule?
The TGI was greater than 100 µM.

What about the TGI [8] of the same molecule?
The TGI was greater than 100 µM.

And the TGI [9]?
The TGI was greater than 100 µM.

Which results are given for `CC(C)(C)C(=O)[CH-]C(=O)C(F)(F)C(F)(F)C(F)(F)F.CC(C)(C)C(=O)[CH-]C(=O)C(F)(F)C(F)(F)C(F)(F)F.[O-]CC1OC(O)C(O)C(O)C1O.[O-]CC1OC(O)C(O)C(O)C1O.[Ti+4]`?
GI50 [3]: 67.4 µM; TGI [3]: > 100 µM; GI50 [4]: > 100 µM; TGI [4]: > 100 µM; GI50 [12]: > 100 µM; TGI [12]: > 100 µM; GI50 [6]: > 100 µM; TGI [6]: > 100 µM; GI50 [7]: 71.4 µM; TGI [7]: > 100 µM; GI50 [8]: > 100 µM; TGI [8]: > 100 µM; GI50 [11]: > 100 µM; TGI [11]: > 100 µM
